Experimental data published in patent publication US20040058974A1, “Treating fungal infections” (SCHERING CORPORATION, priority 2002, published 2004).
Entries after “also recorded” stand apart in the source; their conditions may differ. Where two headings read alike, the source gives them in different places.

How the values were obtained:
[1] = given with food, rising single dose; cited from earlier work
[2] = test system: Candida species (including albicans, glabrata, and tropicalis), as well as other opportunistic fungi; conditions: in vitro and in vivo studies; cited from earlier work
[3] = Posaconazole pharmacokinetics in bone marrow transplant (BMT) patients, 200 mg q6h for up to 25 days; type: in vivo, human
Method: The exposures in the fasted healthy volunteers were confirmed in a study of posaconazole pharmacokinetics in bone marrow transplant (BMT) patients.
Upon extrapolation of model parameters to multiple dosing, the population mean AUC(0-24 hr) value following oral administration of 200 mg of posaconazole four times a day, preferably q 6 hr was estimated to be 12.4 mcg·hr/mL, representing an average plasma concentration of 0.5 mcg/mL. These estimates, based on data from healthy fasted volunteers, are in close agreement with pharmacokinetic data obtained from a study of patients undergoing high-dose chemotherapy and a bone marrow transplant who were orally administered posaconazole 200 mg q6 h for up to 25 days. […] These studies combined with other data form the basis for posaconazole dosing regimens in the clinical efficacy trials for posaconazole.

[4] = Safety and tolerability in the 3-way crossover study (adverse events, vital signs, ECGs, laboratory tests); type: in vivo, human
Method: Physical examinations, vital signs, ECGs, and clinical laboratory tests were conducted at screening and at the end of the study (48 hours after the final dosing regimen). Treatment-emergent adverse events were recorded throughout the study. In addition, vital signs were evaluated prior to drug administration and at 24 and 48 hours after the first dose of each regimen.

[5] = Open-label 3-way crossover clinical pharmacology study: plasma posaconazole pharmacokinetics in fasted healthy subjects (observed values and one-compartment model); type: in vivo, human; conditions: for bioavailability / Tmax / Cmax / Mean Cmin (SD) 48 hours after the initial dose / Increase in bioavailability vs regimen A / Change of estimated AUC(I) relative to regimen A: fasted; for bioavailability: model estimate (SE); for AUC(0-t): read-out: Steady-state AUC(0-24 hr); for Cmax: read-out: Mean Cmax (SD)
Excerpt: Men and women, 18 to 45 years of age were recruited for the clinical pharmacology study. Subjects were required to be of normal body weight (within 15% of ideal body weight) and generally in good health. Inclusion criteria included normal electrocardiogram (ECG) and laboratory test results, along with negative drug and pregnancy screens; nonlactating women of childbearing potential were required to use a barrier method of contraception during the study. Exclusion criteria included substance abuse or significant food or drug allergy, donation of blood or use of an investigational drug during the previous 90 days, use of any prescription or over-the-counter drugs other than acetaminophen in the previous 2 weeks, or use of alcohol during the previous 48 hours. Also excluded were subjects with a positive HIV, hepatitis B, or hepatitis C test, as were subjects with is a clinically significant systemic infection during the previous 4 weeks. Subjects who smoked ≧10 cigarettes daily were also excluded. This was an open-label, 3-way crossover study. Subjects who met the entry criteria were confined to the study center at least 12 hours prior to dosing and 48 hours after each dosing regimen. Subjects were discharged from the study site for a 1-week washout period between each arm of the study. Following an overnight fast, each subject received posaconazole as an oral suspension (40 mg/mL), using one of 3 dosing regimens: a single dose of 800 mg (regimen A); 2 doses of 400 mg given 12 hours apart (regimen B); or 4 doses of 200 mg given 6 hours apart (regimen C). Subjects were randomly assigned using a computer-generated random code to 1 of 6 treatment schedules (ABC, ACB, BAC, BCA, CAB, CBA). The oral posaconazole suspension was manufactured and supplied by Schering-Plough Research Institute, Kenilworth, N.J., USA. After dosing with an oral dosing syringe, the oral cavity was inspected to ensure that the subject had swallowed the suspension. Subjects remained fasted for 24 hours after the initial dose. During the first 14 hours, water was provided ad libitum and subjects received IV 1,400 mL D5W/0.5 normal saline at approximately 100 mL/hr as a calorie and fluid source. For regimen A, B, and C, blood samples were collected in heparin-containing tubes at baseline (0 hr) and at 2, 4, 5, 6, 8, 10, 12, 16, 24, and 48 hours after the first dose. For regimen B, blood samples were additionally collected at 14, 17, 18, 20, and 22 hours after the first dose. For regimen C, additional blood samples were collected at 11, 14, 17, 18, 20, 22, 23, 26, 28, and 36 hours after the first dose. Each sample was centrifuged within 15 minutes after collection for 10 minutes at 4° C. and 1,500 g. The resultant plasma was frozen (−20° C.) until assayed. Plasma posaconazole concentrations were quantified using a validated high-performance liquid chromatographic (HPLC) assay with a lower limit of quantitation (LOQ) of 5 ng/mL and a linear range of 5.0 to 5000 ng/mL. The observed values were the maximum plasma concentration (Cmax), time of maximum plasma concentration (Tmax), and the trough plasma concentration at 48 hours after the initial dose of posaconazole (Cmin). Based on previous experience in modeling concentration-time posaconazole data and goodness of fit criteria, a one-compartment oral model with a first-order rate of absorption and first-order rate of elimination was used. The intra-subject error was assumed to be additive, defined as, where Ci,j(t) and Gi,j(t) were the measured and predicted concentrations, respectively, for the j^th subject at time t under the i^th regimen. The predicted concentrations Gi,j(t) following treatments B and C were calculated using the principle of superpositioning, with a lag time equal to the dosing interval (B: 12 hours; C: 6 hours). The error term εi,j(t) was assumed to be N(0, σ^2 ε). Differences in exposure following the three dosage regimens were explored by allowing the bioavailability fraction (F) to differ between regimens. […]

[6] = single daily dose; cited from earlier work
[7] = 200 mg four times a day, model extrapolated to multiple dosing, healthy fasted volunteers

For CC[C@@H]([C@H](C)O)n1ncn(-c2ccc(N3CCN(c4ccc(OC[C@@H]5CO[C@@](Cn6cncn6)(c6ccc(F)cc6F)C5)cc4)CC3)cc2)c1=O [posaconazole], which “Doses at which absorption saturated” value [1] is on record?
Its value is “above 800 mg”.

And the Antifungal activity [2]?
Its Antifungal activity is “good activity”.

What about the “Average steady-state plasma concentration” value ([3]; 200 mg q6h for up to 25 days, high-dose chemotherapy and bone marrow transplant patients) of the same molecule?
Its value is 0.428 µg/mL.

And the AUC ([3]; human, plasma, oral, 200 mg QID, BMT patients, read-out: AUC (exposure))?
Its AUC is roughly 11000 ng·h/mL.

What about the AUC(0-t) ([3]; human, plasma, oral, 200 mg q6h for up to 25 days, high-dose chemotherapy and bone marrow transplant patients, read-out: AUC(0-24 hr) at steady state) of the same molecule?
Its AUC(0-t) is 10600 ng·h/mL.

And the “Subjects reporting at least 1 adverse event” value ([4]; 18 subjects, all regimens)?
The value was 33%.

What about the “Changes in vital signs, physical examinations, laboratory values, ECGs” value ([4]; all regimens) of the same molecule?
The value was “no clinically significant changes; also recorded: unchanged relative to baseline”.

What about the “Intensity of adverse events” value ([4]; all regimens) of the same molecule?
The value was “mild in intensity”.

And the “Subjects reporting chest pain” value ([4]; regimen C)?
Its value is 11%.

What about the Subjects reporting headache ([4]; regimens A and B) of the same molecule?
Its Subjects reporting headache is 11%.

What about the Safety and tolerability ([4]; total daily dose 800 mg, regardless of dosing regimen) of the same molecule?
The Safety and tolerability was “safe and well tolerated”.

What about the “Average posaconazole plasma concentration” value ([5]; 200 mg QID oral) of the same molecule?
Its value is “greater than 500 ng/mL”.

And the Average plasma concentration [5, 7]?
Its Average plasma concentration is 0.5 µg/mL.

What about the “Population mean AUC(0-24 hr)” value [5, 7] of the same molecule?
The value was 12400 ng·h/mL.

And the “Average posaconazole plasma concentration” value ([5]; 400 mg BID oral)?
Its value is “greater than 300 ng/mL”.

And the “Absorption constant, Ka, estimate” value ([5]; Table 1, one-compartment model)?
The value was 0.197 h⁻¹.

What about the “Elimination constant, Ke, estimate” value ([5]; Table 1, one-compartment model) of the same molecule?
Its value is 0.045 h⁻¹.

And the bioavailability ([5]; both sexes, human, plasma, oral, 200 mg QID vs 800 mg QD, read-out: Bioavailability fraction F3, regimen C relative to regimen A)?
The bioavailability was 320 ± 70%.

And the Tmax ([5]; both sexes, human, plasma, oral, 200 mg, regimen C: 200 mg every 6 h, read-out: Mean Tmax (SD) after the initial dose)?
Its Tmax is 24.2 h.

And the Tmax ([5]; both sexes, human, plasma, oral, 200 mg, regimen C: 200 mg every 6 h, read-out: Tmax after the final dose)?
The Tmax was 6.2 h.

What about the bioavailability ([5]; both sexes, human, plasma, oral, 400 mg BID vs 800 mg QD, read-out: Bioavailability fraction F2, regimen B relative to regimen A) of the same molecule?
Its bioavailability is 198 ± 35%.

And the Tmax ([5]; both sexes, human, plasma, oral, 400 mg, regimen B: 400 mg every 12 h, read-out: Mean Tmax (SD) after the initial dose)?
The Tmax was 16.6 h.

What about the Tmax ([5]; both sexes, human, plasma, oral, 400 mg, regimen B: 400 mg every 12 h, read-out: Tmax after the final dose) of the same molecule?
The Tmax was 4.6 h.

What about the Tmax ([5]; both sexes, human, plasma, oral, 800 mg, regimen A: 800 mg single dose, read-out: Mean Tmax (SD) after the initial dose) of the same molecule?
The Tmax was 7.8 h.

And the Tmax ([5]; both sexes, human, plasma, oral, 800 mg, regimen A: 800 mg single dose, read-out: Tmax after the final dose)?
Its Tmax is 7.8 h.

And the half-life ([5]; both sexes, human, plasma, oral, from absorption rate constant, fasting conditions, read-out: Estimated absorption half-life (converted))?
Its half-life is 3.5 h.

And the half-life ([5]; both sexes, human, plasma, oral, from elimination rate constant, read-out: Estimated terminal elimination half-life (converted))?
Its half-life is 15 h.

And the AUC ([5]; both sexes, human, plasma, oral, 200 mg QID, fasted healthy subjects, read-out: AUC (exposure))?
The AUC was roughly 12000 ng·h/mL.

And the Vd/F ([5]; both sexes, human, plasma, oral, one-compartment model, read-out: V/F1 (volume of distribution) estimate)?
Its Vd/F is 4580 L.

What about the AUC(0-t) ([5]; both sexes, human, plasma, oral, regimen A 800 mg QD, model extrapolated to multiple dosing) of the same molecule?
Its AUC(0-t) is 3900 ng·h/mL.

What about the AUC(0-t) ([5]; both sexes, human, plasma, oral, regimen B 400 mg BID, model extrapolated to multiple dosing) of the same molecule?
Its AUC(0-t) is 7700 ng·h/mL.

And the Cmax ([5]; both sexes, human, plasma, oral, regimen B: 400 mg every 12 h (2 doses))?
The Cmax was 225 ng/mL.

And the AUC(0-t) ([5]; both sexes, human, plasma, oral, regimen C 200 mg QID, model extrapolated to multiple dosing)?
The AUC(0-t) was 12400 ng·h/mL.

And the Cmax ([5]; both sexes, human, plasma, oral, regimen C: 200 mg every 6 h (4 doses))?
Its Cmax is 405 ng/mL.

What about the Cmax ([5]; both sexes, human, plasma, regimen A: 800 mg single oral dose) of the same molecule?
Its Cmax is 137 ng/mL.

And the “Dose at which oral absorption is saturable” value ([5]; fasted subjects, suggested by concentration-time curves)?
The value was 200 mg.

What about the Elimination rate constant ([5]; one-compartment model, all regimens) of the same molecule?
Its Elimination rate constant is 0.045 h⁻¹.

And the Absorption rate constant ([5]; one-compartment model, fasting conditions, all regimens)?
The Absorption rate constant was 0.197 h⁻¹.

What about the “F1 (Regimen A) bioavailability fraction” value ([5]; reference, fixed equal to 1, 800 mg single dose) of the same molecule?
Its value is 1.0.

What about the “Estimated steady-state average concentration” value ([5]; regimen A 800 mg QD, model extrapolated to multiple dosing) of the same molecule?
The value was 162 ng/mL.

And the “Mean Cmin (SD) 48 hours after the initial dose” value (“Mean Cmin (SD) 48 hours” below) ([5]; regimen A: 800 mg single dose)?
The value was 50 (+/−26) ng/mL.

And the “Increase in bioavailability vs regimen A” value ([5]; regimen B 400 mg BID vs 800 mg single dose)?
The value was 98%.

What about the “Estimated steady-state average concentration” value ([5]; regimen B 400 mg BID, model extrapolated to multiple dosing) of the same molecule?
The value was 320 ng/mL.

What about the “Change of estimated AUC(I) relative to regimen A” value ([5]; regimen B 400 mg every 12 h) of the same molecule?
The value was “doubled”.

What about the “Mean Cmin (SD) 48 hours” value ([5]; regimen B: 400 mg every 12 h) of the same molecule?
The value was 96 (+/−46) ng/mL.

What about the “Increase in bioavailability vs regimen A” value ([5]; regimen C 200 mg QID vs 800 mg single dose) of the same molecule?
Its value is 220%.

What about the “Estimated steady-state average concentration” value ([5]; regimen C 200 mg QID, model extrapolated to multiple dosing) of the same molecule?
Its value is 517 ng/mL.

What about the “Change of estimated AUC(I) relative to regimen A” value ([5]; regimen C 200 mg every 6 h) of the same molecule?
Its value is “tripled”.

And the “Mean Cmin (SD) 48 hours” value ([5]; regimen C: 200 mg every 6 h)?
The value was 189 (+/−135) ng/mL.

And the “Increase in oral bioavailability with a high fat meal compared to the fasted state” value [6]?
Its value is “approximately 4 fold”.
